Experimental data as given in PubChem BioAssay (NCI).
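How tested: cells in 96-well plates exposed to compound for 48 hours at five concentrations. GI50 is the concentration that inhibits growth by half. At the TGI there is no net growth.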

Columns and labels:
Assay in all cases: NCI anticancer screen, dose series, 48 h
[1] = system: SNB-19 CNS
[2] = system: SNB-75 CNS
[3] = system: SK-MEL-28 melanoma
[4] = system: HT29 colon
[5] = system: LOX IMVI melanoma
[6] = system: UO-31 renal
[7] = system: RXF 393 renal
[8] = system: HOP-62 NSCLC
[9] = system: COLO 205 colon
[10] = system: RPMI-8226 leukemia
[11] = system: SR leukemia

Compound	TGI [1] [µM]	TGI [2] [µM]	TGI [3] [µM]	TGI [4] [µM]	TGI [5] [µM]	TGI [6] [µM]	TGI [7] [µM]	TGI [8] [µM]	TGI [9] [µM]	TGI [10] [µM]	TGI [11] [µM]	GI50 [1] [µM]	GI50 [2] [µM]	GI50 [3] [µM]	GI50 [9] [µM]	GI50 [4] [µM]	GI50 [6] [µM]	GI50 [7] [µM]	GI50 [8] [µM]
CC(=O)O[C@H]1C(=O)[C@@]2(C)[C@H]([C@H](OC(=O)c3ccoc3)[C@]3(O)C[C@H](OC(=O)[C@H](O)[C@@H](NC(=O)c4ccccc4)c4ccccc4)C(C)=C1C3(C)C)[C@]1(OC(C)=O)CO[C@@H]1C[C@@H]2O	> 12.5	2.38	> 12.5	> 12.5	> 12.5	> 12.5	> 11.8	> 12.5	–	–	–	–	–	–	–	–	–	–	–
C=CCCC1(CC(Sc2ccccc2)P(=O)(c2ccccc2)c2ccccc2)OCCO1 (configuration not stated)	> 10	–	> 10	> 10	> 10	> 10	> 10	> 10	> 10	> 10	> 10	–	–	–	–	–	–	–	–
CCOC(=O)C1C(=O)CC1(C)C (configuration not stated)	> 10	–	> 10	> 10	> 10	> 10	> 10	> 10	> 10	> 10	> 10	–	–	–	–	–	–	–	–
CC(=O)OC1C(Oc2c(C)cc3c(c2O)[C@@H](C)CC[C@@H]3[C@@H](C)CCC=C(C)C)OCC(O)C1O (some centres not stated)	35.1	–	–	27.6	32.5	32.2	–	32.2	30.7	–	47.3	–	–	–	–	–	–	–	–
CC1=CCC(O)C=CC(C)C(O)C(C)C=C(C)C(=O)c2c(O)c(C)cc3c2C(=O)C(N)=C(NC(=O)/C=C\C=C/C=CC(C)C(O)CC1=O)C3=O (configuration not stated)	> 100	> 100	> 100	> 100	> 100	> 100	–	> 100	> 100	> 100	–	–	–	–	–	–	–	–	–
CCN(CC)C1CC(O[C@H]2C[C@](O)(C(=O)CO)Cc3c(O)c4c(c(O)c32)C(=O)c2c(OC)cccc2C4=O)OC(C)C1O (some centres not stated)	0.754	0.184	0.216	1.64	0.439	0.264	0.123	0.455	0.193	0.31	–	–	–	–	–	–	–	–	–
CC(CC[C@@]1(C)C(=O)CCC2O[C@]21C)[C@H]1C[C@@H](c2ccoc2)OC1=O (some centres not stated)	> 100	–	70.8	> 100	48.2	35.2	39.8	> 100	52.1	88.7	> 100	–	–	–	–	–	–	–	–
COc1cc(OC)c2c(C)cc(=O)oc2c1	> 100	> 100	> 100	> 100	> 100	79.5	–	> 100	> 100	> 100	> 100	–	–	–	–	–	–	–	–
O=C(NC(Cc1ccccc1)(Cc1ccc(O)cn1)C(=O)O)c1ccccc1 (configuration not stated)	> 100	> 100	> 100	> 100	> 100	> 100	> 100	> 100	> 100	> 100	–	–	–	–	–	–	–	–	–
Cc1ccc(S(=O)(=O)N/N=C2/CCCOC2)cc1	> 100	–	> 100	> 100	> 100	> 100	> 100	> 100	> 100	> 100	> 100	–	–	–	–	–	–	–	–
Nc1nc(-[n+]2ccc(-c3ccncc3)cc2)nc(Cl)c1Cl	> 100	–	> 100	> 100	33.2	> 100	32.8	> 100	> 100	> 100	41	–	–	–	–	–	–	–	–
Cc1ccc2c3c1O[C@H]1c4[nH]c5ccccc5c4C[C@@]4(O)[C@@H](C2)N(CC2CC2)CC[C@]314	32.2	–	36.4	18.7	33.1	26.8	20.8	33.3	30.8	29.4	46.8	–	–	–	–	–	–	–	–
COC(=O)Nc1nc2ccc(S(=O)(=O)SC)cc2[nH]1	> 100	–	25.3	11.1	22.1	–	17.9	> 100	> 100	> 100	62.8	–	–	–	–	–	–	–	–
C[C@@H](c1ccccc1)n1c(N)c(C#N)c2ccc([N+](=O)[O-])cc2c1=O	29.1	46.2	39.5	28.1	34.9	24.1	–	–	30.8	–	12.2	–	–	–	–	–	–	–	–
NNC(=S)N/N=C(/C(=O)Nc1ccc(Cl)c(Cl)c1)C(C1OC(=O)c2ccccc21)[N+](=O)[O-] (configuration not stated)	–	> 100	> 100	> 100	> 100	> 100	> 100	> 100	–	> 100	–	–	–	–	–	–	–	–	–
COC1=C(OC)C(=O)C(Cc2c(C)nc3sccn23)=C(C)C1=O	33.3	–	23.3	32.2	36.5	29.1	51.7	34.8	26.8	24.7	38.9	–	–	–	–	–	–	–	–
CC(C)=CCC(O)[C@](C)(O)[C@H]1[C@H](O)C[C@@]2(C)[C@@H]3CCc4cc(O)c(OC5OC(CO)C(O)C(O)C5O)cc4C3(C)C(=O)C[C@]12C (some centres not stated)	> 100	> 100	> 100	> 100	–	> 100	> 100	> 100	> 100	–	> 100	–	–	–	–	–	–	–	–
Cc1ccc([N+](=O)[O-])c2c(NCCC[N+](C)(C)[O-])c3ccccc3nc12	6.56	2.49	17	5.26	9.2	42.6	3.02	> 41.1	2.56	–	–	–	–	–	–	–	–	–	–
N#C/C(=C/NC(N)=S)C(N)=O	> 100	> 100	> 100	> 100	> 100	> 100	> 100	> 100	> 100	–	–	–	–	–	–	–	–	–	–
CCN(CC)CCSc1c2cc(OC)ccc2nc2ccc(OC)cc12	> 65.7	31.8	32.7	–	–	–	–	> 75.4	4.14	6.96	> 21.8	–	–	–	–	–	–	–	–
O=C1NC2O[C@H](CNC(=O)c3cc(Br)c[nH]3)CC2(O)N1 (mixture of isomers)	> 100	> 100	> 100	> 100	–	> 100	–	> 100	> 100	> 100	> 100	–	–	–	–	–	–	–	–
CC(C)OC(=O)/C=C/C(=O)O/C=C/[N+](=O)[O-]	> 100	–	> 100	> 100	32.9	> 100	44	> 100	38.3	33.9	71.6	–	–	–	–	–	–	–	–

Compound	TGI [1] [µM]	TGI [2] [µM]	TGI [3] [µM]	TGI [4] [µM]	TGI [5] [µM]	TGI [6] [µM]	TGI [7] [µM]	TGI [8] [µM]	TGI [9] [µM]	TGI [10] [µM]	TGI [11] [µM]	GI50 [1] [µM]	GI50 [2] [µM]	GI50 [3] [µM]	GI50 [9] [µM]	GI50 [4] [µM]	GI50 [6] [µM]	GI50 [7] [µM]	GI50 [8] [µM]
CCOc1ncn(-c2ccc(NC(=S)NC3OC(CO)C(O)C(O)C3O)cc2)n1 (configuration not stated)	> 100	> 100	> 100	> 100	> 100	> 100	–	> 100	> 100	> 100	> 100	–	–	–	–	–	–	–	–
COc1cc(Br)cc2cc(-c3cn4c(n3)sc3ccccc34)c(=O)oc12	> 75	–	–	> 75	56.4	> 75	–	> 75	> 75	49.8	> 75	–	–	–	–	–	–	–	–
O=C(c1cccs1)N1CCc2ccccc2C1	> 100	–	> 100	> 100	> 100	> 100	> 100	> 100	> 100	> 100	> 100	–	–	–	–	–	–	–	–
CCOC(=O)Cc1nc2cc(F)c(F)cc2[nH]c1=O	> 100	> 100	> 100	> 100	> 100	> 100	> 100	> 100	> 100	> 100	–	–	–	–	–	–	–	–	–
CCc1cc(Cc2cc(CC)c(NC(=O)C(=O)CC(=O)c3sc(-c4cccnc4)nc3C)c(CC)c2)cc(CC)c1NC(=O)C(=O)CC(=O)c1sc(-c2cccnc2)nc1C	> 100	> 100	> 100	> 100	> 100	> 100	> 100	–	> 100	> 100	–	–	–	–	–	–	–	–	–
c1ccc(CNc2nncc3[nH]cnc23)cc1	–	> 100	> 100	> 100	> 100	> 100	–	> 100	> 100	> 100	> 100	–	–	–	–	–	–	–	–
CCOC1=NC(O)c2cccn2-c2sccc21 (configuration not stated)	> 100	–	> 100	> 100	–	> 100	> 100	> 100	> 100	> 100	> 100	–	–	–	–	–	–	–	–
O=C(c1ccco1)N(C(=S)OCCOc1ccccc1)c1ccccc1	59.7	–	40.3	42.1	34.5	35.5	28.2	32.1	37.5	47.2	–	–	–	–	–	–	–	–	–
COCc1nc2c(OC)c(-c3nc4nc(N5CCN(C)CC5)ccc4[nH]3)cc(OC)c2n1C	> 100	64.9	56	62	39.5	76.9	57.6	> 100	21.5	59.1	–	–	–	–	–	–	–	–	–
COC(=O)c1cc2c(cc1Cl)Sc1nnc(Nc3ccc(C)cc3)n1S2(=O)=O	20.2	–	21.8	15.5	–	23.6	13.2	23.5	17.9	5.44	6.2	–	–	–	–	–	–	–	–
CSc1nnc(SC)nn1	43.3	31.2	–	36.5	38	29.5	30.3	29.1	32.7	32.7	–	–	–	–	–	–	–	–	–
Nc1ccc(Cc2c(N)[nH]c(=O)[nH]c2=O)cc1	> 100	–	> 100	> 100	> 100	> 100	–	–	> 100	> 100	–	–	–	–	–	–	–	–	–
CC(=O)O[C@H]1C(=O)[C@@]2(C)C(C(OC(=O)c3ccccc3)[C@]3(O)CC(OC(=O)C(O)C(NC(=O)c4ccc(C(F)(F)F)cc4)c4ccccc4)C(C)=C1C3(C)C)[C@]1(OC(C)=O)CO[C@@H]1C[C@@H]2O (some centres not stated)	> 37.5	0.00891	17.8	0.237	6.43	–	–	0.506	0.153	5.88	4.96	–	–	–	–	–	–	–	–
O=c1cc(N2CCCC2)[nH]c(=O)n1-c1cccc(Cl)c1	> 100	> 100	–	> 100	> 100	–	> 100	> 100	> 100	> 100	–	–	–	–	–	–	–	–	–
O=C1NC(=S)NC(=O)C1C(c1ccc(O)cc1)C1C(=O)NC(=S)NC1=O	> 100	–	> 100	> 100	> 100	> 100	> 100	> 100	> 100	> 100	–	–	–	–	–	–	–	–	–
CN(C)CCCN=c1c2ccccc2n(O)c2ccccc12	–	> 100	> 100	28.8	> 100	> 100	> 100	> 100	26.9	> 100	–	–	–	–	–	–	–	–	–
COc1cc2oc(-c3ccc(O)cc3)c(OC)c(=O)c2c(O)c1OC	> 100	> 100	> 100	> 100	–	> 100	> 100	> 100	> 100	–	–	> 100	45.2	> 100	32.1	31.1	42.6	29	42.3
CC(C)=C[C@H]1CCC2(OCCO2)[C@]1(C)CO	> 100	> 100	> 100	–	> 100	> 100	> 100	–	> 100	> 100	–	–	–	–	–	–	–	–	–
CC(=O)Oc1ccc2cc(-c3ccccc3OC(C)=O)c(=O)oc2c1	> 100	34.4	> 100	> 100	> 100	28.4	–	> 100	> 100	> 100	> 100	–	–	–	–	–	–	–	–
Cn1c(O)c(C(=O)NC2CCCCC2)c(=O)n(C)c1=S	71.2	–	16.8	–	28.5	–	–	16.8	4.42	17.2	48.9	–	–	–	–	–	–	–	–
CC1(C)C[C@@H]2C1CCC1(C)CC2(O)CC[C@H]1O (some centres not stated)	> 100	> 100	> 100	> 100	> 100	> 100	–	> 100	> 100	> 100	> 100	–	–	–	–	–	–	–	–
